Results from patent US11286236B2, “Compound, agent and composition for the suppression of cancer growth” (Vector Vitale IP LLC, priority 2018, dated 2022).

Tested on: Ehrlich ascites carcinoma
Assay: In vivo antitumor activity against Ehrlich ascites carcinoma
Design: species or system mouse
Conditions: for Number of animals in the group with tumor / Number of animals in the group without tumor: 14 mice per group
Method: Outbred mice were administered Ehrlich ascites carcinoma cells (EAC) intraperitoneally (IP) at a dose of 2.5×10^5 cells in 0.25 ml of normal saline solution. The compounds under study, 1)^85RbeE2, was dissolved in deuterium-depleted water and 2) Cisplatin (Teva, the Netherlands), was dissolved in normal saline solution. The drugs were administered starting from the first day after mice were inoculated with tumor cells, using a microinjection syringe, at the following doses: 1)^85Rbe-E2 at a dose of 750 μg/mouse (weighing 20 g) in a volume of 0.3 ml as 3 IP injections (1 injection—250 μg/mouse) on the 1st, 4th and 7th day of the experiment; 2) Cisplatin at a dose of 4.5 mg/kg or 1.5 mg/kg as 3 IP injections on the 2nd, 5th and 8th day of the experiment. The dynamics of tumor growth in the experimental animals was observed (based on the volume of ascites in the peritoneal cavity) after the tumor cell inoculation and for 31 days of the experiment. On the 15th and 22nd day after IP administration of tumor cells, all the fluid accumulated in each animal's abdomen was extracted and the total number of live/dead cells in each mouse was determined. In addition, some mice were used to assess a survival rate of animals in the experiment.
Laboratory animals. 84 outbred female 10 to 12-week old mice weighing 22-26 g were used in the experimental study. The animals were obtained from the animal vivarium at R.E. Kavetsky IEPOR NASU. […] The animals were maintained in plastic cages, under natural light-dark cycles, fed standard food and allowed free access to food and tap water.
Tumor model. Ascites strain of Ehrlich ascites carcinoma maintained on outbred mice obtained from the cell and tissue line bank at R.E. Kavetsky IEPOR NASU was used in the experiment. To prepare the strain for injection, tumor cells derived from ascitic fluid were placed in normal saline solution and cellularity of the suspension was assessed in a hemocytometer and adjusted to a concentration of 1·10^6 cells/ml with saline solution. The tumor cells were inoculated by injecting 250 mcl of cell suspension from the tumor (0.25×10^6 cells/mouse) into the peritoneal cavity of laboratory animals.
The drugs were administered IP every other day, using a microinjection syringe, at doses specified above as a series of 3 injections of each compound according to the following scheme: ^85Rbe-E2 at a dose of 250 μg/mouse weighing 20 g+CP at a dose of […] 24 hours later (for groups (EAC+CP(4.5)) and (EAC+^85Rbe-E2+CP(4.5)) or […] (for groups (EAC+CP(1.5)) and (EAC+^85Rbe-E2+CP(1.5)) in a volume of 0.25 ml of saline solution (6 injections in total during 8 days).
The tumor growth dynamics in the laboratory animals was observed by daily control of the volume of ascitic fluid in the abdominal cavity of mice starting from the tumor inoculation and for 31 days of the experiment. The dynamics of ascites growth both in control and experimental groups was assessed visually using a 10-point scale, where 0 points were the absence of tumor growth and 10 points were the maximum increase in the size of the abdomen of the mouse with ascites (one point was 0.6 cm of the mean diameter of the mouse abdomen filled with the fluid).
Furthermore, on the 15th and 22nd day after intraperitoneal injection of tumor cells, all ascitic fluid was removed from the abdomen in 2 or 3 animals from each group by washing their peritoneal cavity with saline solution, and live/dead EAC cells were counted in each mouse using the traditional vital dye trypan blue (HyClon, USA) and a hemocytometer.
X=((a)/80)×10^6, where X is the number of cells in 1 ml and a is the number of cells counted in 5 large diagonal squares of the hemocytometer.
7 or 8 mice from each group were used to assess their survival in the experiment. The total lifespan observation time was 31 days from the moment of inoculation of tumor cells.
Statistical data processing. […]

[1] = CP 1.5 mg/kg IP total (combination: + 85Rbe-E2 750 μg/mouse)
[2] = CP 4.5 mg/kg IP total (combination: + 85Rbe-E2 750 μg/mouse)
[3] = Day 15, CP 1.5 mg/kg IP total (combination: + 85Rbe-E2 750 μg/mouse)
[4] = Day 15, CP 4.5 mg/kg IP total (combination: + 85Rbe-E2 750 μg/mouse)
[5] = Day 22, CP 1.5 mg/kg IP total (combination: + 85Rbe-E2 750 μg/mouse)
[6] = Day 22, CP 4.5 mg/kg IP total (combination: + 85Rbe-E2 750 μg/mouse)

With N.N.[Cl][Pt][Cl] [cisplatin] the “Animals without tumor, %” value [1] was 0%, the “Number of animals in the group with tumor” value [1] was 14 and the “Number of animals in the group without tumor” value [1] was 0. The “Animals without tumor, %” value [2] was 0%, the “Number of animals in the group with tumor” value [2] was 14 and the “Number of animals in the group without tumor” value [2] was 0. For the same molecule, the “Number of dead cells/mouse, %” value [3] was 9.5 ± 2.8%, the “Number of live cells/mouse, ×10^6 (M ± m)” value (“Number of live cells/mouse” below) [3] was 1188 ± 116 ×10^6 and the “Volume of ascites” value [3] was 5.2 ± 1.3 mL. For the same molecule, the “Number of dead cells/mouse, %” value [4] was less than 1%, the “Number of live cells/mouse” value [4] was 33.5 ± 11 ×10^6 and the “Volume of ascites” value [4] was 0.4 ± 0.1 mL. For the same molecule, the “Number of dead cells/mouse, %” value [5] was 11 ± 1%, the “Number of live cells/mouse” value [5] was 1154 ± 429 ×10^6 and the “Volume of ascites” value [5] was 14.4 ± 8.7 mL. The “Number of dead cells/mouse, %” value [6] was less than 3%, the “Number of live cells/mouse” value [6] was 430 ± 250 ×10^6 and the “Volume of ascites” value [6] was 2.8 ± 1.3 mL. The “Last day with statistically significant inhibition of EAC growth vs control” value (cisplatin 1.5 mg/kg (combination: + 85Rbe-E2)) was 9 days, the “Suppression of tumor growth vs control” value (cisplatin 1.5 mg/kg mono-regime, only up to the 10th day) was 32% and the “Suppression of tumor growth / decrease in tumor size vs control, average” value (cisplatin 4.5 mg/kg (combination: + 85Rbe-E2 total 750 mg/mouse as printed), throughout the observation period) was 51.3%. For the same molecule, the “Survival, percent of mice” value (day 0, CP 1.5 mg/kg IP total (combination: + 85Rbe-E2 750 μg/mouse)) was 100%, the “Survival, percent of mice” value (day 0, CP 4.5 mg/kg IP total (combination: + 85Rbe-E2 750 μg/mouse)) was 100% and the “Size of mouse abdomen, points” value (day 9, CP 1.5 mg/kg IP total (combination: + 85Rbe-E2 750 μg/mouse IP total)) was 3.8 ± 0.8 points. For the same molecule, the “Size of mouse abdomen, points” value (day 9, CP 4.5 mg/kg IP total (combination: + 85Rbe-E2 750 μg/mouse IP total)) was 2.6 ± 0.2 points, the “Size of mouse abdomen, points” value (day 13, CP 1.5 mg/kg IP total (combination: + 85Rbe-E2 750 μg/mouse IP total)) was 5.9 ± 1.1 points and the “Size of mouse abdomen, points” value (day 13, CP 4.5 mg/kg IP total (combination: + 85Rbe-E2 750 μg/mouse IP total)) was 3.2 ± 0.3 points. For the same molecule, the “Size of mouse abdomen, points” value (day 15, CP 1.5 mg/kg IP total (combination: + 85Rbe-E2 750 μg/mouse IP total)) was 6.9 ± 0.4 points, the “Survival, percent of mice” value (day 15, CP 1.5 mg/kg IP total (combination: + 85Rbe-E2 750 μg/mouse)) was 100% and the “Number of live cells in ascites as fraction of the control” value (day 15, CP 4.5 mg/kg (combination: + 85Rbe-E2), p<0.05) was “approximately 1/53”. For the same molecule, the “Size of mouse abdomen, points” value (day 15, CP 4.5 mg/kg IP total (combination: + 85Rbe-E2 750 μg/mouse IP total)) was 3.1 ± 0.4 points, the “Survival, percent of mice” value (day 15, CP 4.5 mg/kg IP total (combination: + 85Rbe-E2 750 μg/mouse)) was 100% and the “Number of live cells in ascites, times smaller than in the control” value (day 15, EAC+CP(4.5) group, p<0.05) was 52 times. For the same molecule, the “Size of mouse abdomen, points” value (day 17, CP 1.5 mg/kg IP total (combination: + 85Rbe-E2 750 μg/mouse IP total)) was 7.4 ± 0.6 points, the “Survival, percent of mice” value (day 17, CP 1.5 mg/kg IP total (combination: + 85Rbe-E2 750 μg/mouse)) was 100% and the “Size of mouse abdomen, points” value (day 17, CP 4.5 mg/kg IP total (combination: + 85Rbe-E2 750 μg/mouse IP total)) was 3.4 ± 0.4 points. The “Survival, percent of mice” value (day 17, CP 4.5 mg/kg IP total (combination: + 85Rbe-E2 750 μg/mouse)) was 87.5%, the “Survival, percent of mice” value (day 19, CP 1.5 mg/kg IP total (combination: + 85Rbe-E2 750 μg/mouse)) was 100% and the “Survival, percent of mice” value (day 19, CP 4.5 mg/kg IP total (combination: + 85Rbe-E2 750 μg/mouse)) was 87.5%. For the same molecule, the “Size of mouse abdomen, points” value (day 20, CP 1.5 mg/kg IP total (combination: + 85Rbe-E2 750 μg/mouse IP total)) was 8.1 ± 0.6 points, the “Size of mouse abdomen, points” value (day 20, CP 4.5 mg/kg IP total (combination: + 85Rbe-E2 750 μg/mouse IP total)) was 4.8 ± 0.5 points and the “Size of mouse abdomen, points” value (day 22, CP 1.5 mg/kg IP total (combination: + 85Rbe-E2 750 μg/mouse IP total)) was 8.2 ± 0.8 points. For the same molecule, the “Survival, percent of mice” value (day 22, CP 1.5 mg/kg IP total (combination: + 85Rbe-E2 750 μg/mouse)) was 100%, the “Size of mouse abdomen, points” value (day 22, CP 4.5 mg/kg IP total (combination: + 85Rbe-E2 750 μg/mouse IP total)) was 4.7 ± 0.7 points and the “Survival, percent of mice” value (day 22, CP 4.5 mg/kg IP total (combination: + 85Rbe-E2 750 μg/mouse)) was 75%. For the same molecule, the “Size of mouse abdomen, points” value (day 24, CP 1.5 mg/kg IP total (combination: + 85Rbe-E2 750 μg/mouse IP total)) was 8.6 ± 0.8 points, the “Survival, percent of mice” value (day 24, CP 1.5 mg/kg IP total (combination: + 85Rbe-E2 750 μg/mouse)) was 100% and the “Size of mouse abdomen, points” value (day 24, CP 4.5 mg/kg IP total (combination: + 85Rbe-E2 750 μg/mouse IP total)) was 5.2 ± 0.9 points. For the same molecule, the “Survival, percent of mice” value (day 24, CP 4.5 mg/kg IP total (combination: + 85Rbe-E2 750 μg/mouse)) was 75%, the “Survival, percent of mice” value (day 25, CP 1.5 mg/kg IP total (combination: + 85Rbe-E2 750 μg/mouse)) was 100% and the “Survival, percent of mice” value (day 25, CP 4.5 mg/kg IP total (combination: + 85Rbe-E2 750 μg/mouse)) was 75%. The “Survival, percent of mice” value (day 26, CP 1.5 mg/kg IP total (combination: + 85Rbe-E2 750 μg/mouse)) was 100%, the “Survival, percent of mice” value (day 26, CP 4.5 mg/kg IP total (combination: + 85Rbe-E2 750 μg/mouse)) was 75% and the “Size of mouse abdomen, points” value (day 27, CP 1.5 mg/kg IP total (combination: + 85Rbe-E2 750 μg/mouse IP total)) was 8.4 ± 1 points. For the same molecule, the “Survival, percent of mice” value (day 27, CP 1.5 mg/kg IP total (combination: + 85Rbe-E2 750 μg/mouse)) was 87.5%, the “Size of mouse abdomen, points” value (day 27, CP 4.5 mg/kg IP total (combination: + 85Rbe-E2 750 μg/mouse IP total), listed as CP) was 5.2±0.9 points and the “Survival, percent of mice” value (day 27, CP 4.5 mg/kg IP total (combination: + 85Rbe-E2 750 μg/mouse)) was 75%. The “Survival, percent of mice” value (day 28, CP 1.5 mg/kg IP total (combination: + 85Rbe-E2 750 μg/mouse)) was 75%, the “Survival, percent of mice” value (day 28, CP 4.5 mg/kg IP total (combination: + 85Rbe-E2 750 μg/mouse)) was 75% and the “Size of mouse abdomen, points” value (day 29, CP 1.5 mg/kg IP total (combination: + 85Rbe-E2 750 μg/mouse IP total)) was 8.4 ± 1 points. For the same molecule, the “Survival, percent of mice” value (day 29, CP 1.5 mg/kg IP total (combination: + 85Rbe-E2 750 μg/mouse), listed as CP) was 50%, the “Size of mouse abdomen, points” value (day 29, CP 4.5 mg/kg IP total (combination: + 85Rbe-E2 750 μg/mouse IP total)) was 5.4 ± 0.9 points and the “Survival, percent of mice” value (day 29, CP 4.5 mg/kg IP total (combination: + 85Rbe-E2 750 μg/mouse), listed as CP) was 75%. For the same molecule, the “Size of mouse abdomen, points” value (day 31, CP 1.5 mg/kg IP total (combination: + 85Rbe-E2 750 μg/mouse IP total)) was 7.9 ± 1.4 points, the “Survival, percent of mice” value (day 31, CP 1.5 mg/kg IP total (combination: + 85Rbe-E2 750 μg/mouse), listed as CP) was 37.5% and the “Size of mouse abdomen, points” value (day 31, CP 4.5 mg/kg IP total (combination: + 85Rbe-E2 750 μg/mouse IP total)) was 6 ± 1.3 points. For the same molecule, the “Survival, percent of mice” value (day 31, CP 4.5 mg/kg IP total (combination: + 85Rbe-E2 750 μg/mouse), listed as CP) was 62.5%.
